Measured values from article PMC9532951, “Identification and characterization of a novel SNAT2 (SLC38A2) inhibitor reveals synergy with glucose transport inhibition in cancer cells” (Frontiers in Pharmacology, 2022).
Where “and” joins values, the source holds several entries; their conditions need not be identical. Equal entries are not always repeated.

Legend:
Assay type in all cases: cell-based, human
[1] = system: SNAT1 and SNAT2; experiment: High-throughput compound screen, FMP assay in 384-well format (primary, confirmatory, control compounds)
Procedure: For the high-throughput compound screen, the FMP assay was adapted into a 384-well format within the ANU Centre for Therapeutic Discovery. […] Compounds Australia stores compounds under robust environmental conditions and supplies them in assay ready plate format. We screened 33,934 compounds from the Collection Scaffold Library. Cells (10,000/well) were seeded into Corning 384-well black walled plates (CLS3985; Sigma-Aldrich) using a Multidrop Combi liquid dispensing robot (Thermo Fisher) in a 40 µl volume. Once seeded, cells were allowed to grow in a microplate incubator (Liconic) for 24 h at 37°C (humidified atmosphere with 95% air and 5% CO2). Subsequently, plates were washed thrice with 50 µL of mHBSS using a 405 TS washer (BioTek). Then, 50 µl of starvation medium was added and cells were incubated again for 24 h.
Assay-ready compound plates (384 well plates containing compound or DMSO controls) were then prepared prior to addition to cells. In addition to the supplied compounds, 5 µl γ-glutamyl-hydroxamate (GHX, 60 mM dissolved in mHBSS, serving as an inhibitor control) was added into inhibitor control wells using a JANUS G3 robot (PerkinElmer). Subsequently, 25 uL of mHBSS was dispensed into all wells of the 384 well plate using a Multidrop Combi. All samples were then mixed using the JANUS G3 robot and 15 µl dispensed on top of the cell monolayer to reach a final concentration of 10.05 µM.
The FMP dye was solved freshly with mHBSS, 20 µl of which was deposited into each well using the Multidrop Combi, and the cells were incubated at room temperatur for 30 min. Each plate was then placed in an EnVision microplate reader (PerkinElmer) and a single baseline measurement was taken for each well (bottom reads excitation at 531, emission at 579 nm). The plate was then transferred to the Multidrop Combi and 10 µl/well of 5 mM glutamine was dispensed into each well. After linearly shaking for 5 s, microplates were returned to the EnVision microplate reader for a single post-injection measurement per well. The change of fluorescence was measured after 60 s.
Z′ scores were calculated from the controls onboard each of the 384-well plates assayed in the primary and secondary screen as described by Zhang et al., ([Zhang et al., 1999]). For the control inhibitor γ-glutamyl-hydroxamate (GHX) a Z’ score of 0.717 was determined, which was a sufficient signal for a HTS.

[2] = system: SNAT2; experiment: Radiolabelled proline uptake in amino acid depleted SKOV3 cells
Procedure: (§1) Functional characterisation of plasma membrane transporters in human cancer cells was determined at 37°C using an array of radiolabelled amino acid substrates. Modified Hanks HEPES-buffered salts solution (mHBSS; 137 mM NaCl; 5.4 mM KCl; 2.7 mM K2HPO4; 1 mM CaCl2; 0.5 mM MgCl2; 0.44 mM KH2PO4; 0.4 mM MgSO4; 5 mM D-glucose; 5 mM HEPES; pH 7.4) was used to wash and incubate cells where sodium dependent transport was measured, while N-methyl-D-glucamine (NMDG) and potassium salts substituted sodium in NMDG mHBSS to measure sodium independent uptake. For the assay, cells were seeded in 35 mm dishes and, once confluent, were washed thrice with warm mHBSS solution and incubated with mHBSS containing an 100 µM amino acid at a final specific activity of ≥2000 cpm/nmol (U-[^14C]amino acids were from PerkinElmer). After 6 min, cells were washed thrice with ice-cold mHBSS, lysed with 500 µl of 0.1 M HCl, detached with a cell scraper and triturated. A 400 µl aliquot was used for scintillation counting, while the remainder was saved for protein mass quantification by Bradford assay. Transport rates were normalised to the protein content of the culture dish.
IC50 were calculated using equation y=ymax(1−x/x+IC50)

[3] = system: HCC1806 cells; experiment: [14C]alanine uptake in non-depleted HCC1806 cells; details: amino acid replete HCC1806 cells
Procedure: as §1

## Cc1ccc(S(=O)(=O)N(C)c2ccsc2C(=O)NCc2ccccc2C(F)(F)F)cc1 [Compound 57_E, 3-(N-methyl (4-methylphenyl)sulfonamido)-N-(2-trifluoromethylbenzyl)thiophene-2-carboxamide]
[1]; Figure 3A, ranked hits of the high-throughput screen, FMP assay
  % (delta) Fluorescence Signal: 58.6322%
[2]; 30 µM, Figure 4A
  inhibition of proline uptake: inhibition equivalent to betaine
[2]; Figure 4A, screening compounds, replicates 1-3
  Proline uptake (nmol / mg protein x 6 min): 12.1271 nmol / mg protein x 6 min and 12.3527 nmol / mg protein x 6 min and 11.9613 nmol / mg protein x 6 min
[2]; Figure 5B, 0.03 uM
  Proline uptake (nmol / mg protein x 6 min): 13.4934 nmol / mg protein x 6 min and 12.6179 nmol / mg protein x 6 min and 11.806 nmol / mg protein x 6 min and 12.3756 nmol / mg protein x 6 min
[2]; Figure 5B, 0.1 uM
  Proline uptake (nmol / mg protein x 6 min): 11.4589 nmol / mg protein x 6 min and 11.5974 nmol / mg protein x 6 min and 12.2114 nmol / mg protein x 6 min and 11.4952 nmol / mg protein x 6 min
[2]; Figure 5B, 0.3 uM
  Proline uptake (nmol / mg protein x 6 min): 9.658 nmol / mg protein x 6 min and 10.0504 nmol / mg protein x 6 min and 12.5202 nmol / mg protein x 6 min and 8.873 nmol / mg protein x 6 min
[2]; Figure 5B, 1 uM
  Proline uptake (nmol / mg protein x 6 min): 8.923 nmol / mg protein x 6 min and 10.4357 nmol / mg protein x 6 min and 8.533 nmol / mg protein x 6 min
[2]; Figure 5B, 3 uM
  Proline uptake (nmol / mg protein x 6 min): 6.737 nmol / mg protein x 6 min and 7.879 nmol / mg protein x 6 min and 6.95 nmol / mg protein x 6 min and 7.052 nmol / mg protein x 6 min
[2]; Figure 5B, 10 uM
  Proline uptake (nmol / mg protein x 6 min): 6.707 nmol / mg protein x 6 min and 7.214 nmol / mg protein x 6 min and 6.31 nmol / mg protein x 6 min and 7.23 nmol / mg protein x 6 min
[3]
  inhibition of [14C]alanine uptake: about 10%

## C[N+](C)(C)CC(=O)O [Betaine, betaine]
[2]; 10 mM, 100 µM proline, Figure 4A (24 h starvation)
  inhibition of proline uptake: 30%
[2]; 10 mM, Figure 4D (15 h starvation)
  inhibition of proline uptake: 60%
[2]; Figure 4A, 10mM, replicates 1-3
  Proline uptake (nmol / mg protein x 6 min): 14.3516 nmol / mg protein x 6 min and 14.2805 nmol / mg protein x 6 min and 13.5695 nmol / mg protein x 6 min
[2]; Figure 5B, reference inhibitors, replicates
  Proline uptake (nmol / mg protein x 6 min): 7.636 nmol / mg protein x 6 min and 7.165 nmol / mg protein x 6 min and 7.435 nmol / mg protein x 6 min and 7.421 nmol / mg protein x 6 min
[3]
  inhibition of [14C]alanine uptake: about 10%

## N[C@@H](CCC(=O)NO)C(=O)O [GHX, L-glutamic acid γ-monohydroxamate]
[1]; 6 mM, 1 mM glutamine
  reduction of FMP signal: 92%
